Measurements reported in US20220088115A1, “PHARMACEUTICAL COMPOSITION, COMPRISING INHIBITORY PEPTIDE AGAINST FAS SIGNALING, FOR PREVENTION OR TREATMENT OF OBESITY, FATTY LIVER, OR STEATOHEPATITIS” (SIGNET BIOTECH INC., priority 2018, published 2022).

Tests used:
[1] = molecular target: T1, Fas (Homo sapiens, UniProt P25445); assay: Binding of Alexa647-labeled peptides to Fas-expressing Jurkat cell line; conditions: Jurkat cell line always expressing Fas; Alexa647-labeled peptide
T1 construct: A Jurkat cell line, in which Fas is always expressed; host or cells: Jurkat
T1 sequence (P25445 26-335): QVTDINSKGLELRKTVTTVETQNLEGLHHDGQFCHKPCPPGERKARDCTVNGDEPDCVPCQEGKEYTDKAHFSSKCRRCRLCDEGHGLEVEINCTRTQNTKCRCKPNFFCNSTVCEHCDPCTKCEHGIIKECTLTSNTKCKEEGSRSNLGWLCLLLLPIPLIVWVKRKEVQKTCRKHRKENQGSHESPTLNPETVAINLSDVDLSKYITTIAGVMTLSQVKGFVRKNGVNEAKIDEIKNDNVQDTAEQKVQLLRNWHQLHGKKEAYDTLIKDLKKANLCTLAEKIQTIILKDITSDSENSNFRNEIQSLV
Method: A Jurkat cell line which is a human blood cancer cell line and a 3T3L1 cell line which is a murine adipocyte were purchased from ATCC (USA), and the Jurkat cell line was cultured in an RPMI culture medium containing 10% fetal bovine serum (FBS), 1% penicillin, 1% streptomycin, and 25 mM glucose.
A Jurkat cell line, in which Fas is always expressed, was treated with an FITC-labeled Fas antibody and treated with Alexa647-labeled FBP-8, FBP-A, FBP-7 or control peptide (YCNSTVCY; CtrFBP).

[2] = tested on: 3T3L1 cell line; assay: Apoptosis level in 3T3L1 cell line treated with FasL and peptide (annexin V flow cytometry); assay type: cell-based, murine; conditions: differentiated 3T3L1 treated with Fas ligand and peptide
Method: (§1) The 3T3L1 cell line was cultured in a DMEM culture medium containing 10% FBS, 1% penicillin, 1% streptomycin, and 25 mM glucose. The 3T3L1 cell line was aliquoted into the above DMEM culture solution at a concentration of 2×10^5 cells/ml to induce adipocyte maturation for 3 days, and then replaced with a culture solution containing insulin to induce adipocyte maturation again for 3 days. Thereafter, the 3T3L1 cell line was further cultured in the above DMEM culture solution for 2 days to achieve complete maturation of adipocytes.
The 3T3L1 cell line was treated with a Fas ligand (FasL) at a concentration of 500 ng/ml to induce apoptosis, and FBP signal blocking peptides (FBP-8. FBP-A and FBP-7) and CtrFBP bound to Alexa647 were treated, respectively. After 4 hours of peptide treatment, cells were washed with DPBS and treated with FITC-bound annexin V (BD Pharmingen) to analyze the apoptosis inhibitory effect by a flow cytometer.

[3] = tested on: 3T3L1 cell line; assay: Expression of inflammation-related genes in 3T3L1 cell line treated with FasL and peptide; assay type: cell-based, murine; conditions: differentiated 3T3L1 treated with Fas ligand and FBP-8 in combination
Method: as §1
mRNA was extracted from liver tissues and white adipose tissues using RNAiso (Takara, Japan), and cDNA was synthesized with an iscript cDNA synthesis kit (Bio-Rad Laboratories, USA). Thereafter, a gene expression level was analyzed by the 7500 Fast Real-time PCR system (Applied Biosystems, USA). The expression level of each gene was normalized with the expression level of a GAPDH gene, and then calculated as a relative gene expression level with respect to the control.

[4] = tested on: 3T3L1 cell line; assay: Inflammation-related cytokines in 3T3L1 cell culture solution (ELISA); assay type: cell-based, murine; conditions: 3T3L1 treated with FasL and FBP-8
Method: as §1
(§2) The cytokine levels of serum and tissues were analyzed with an ELISA kit (eBioscience, USA), and the triglyceride levels of liver tissues were confirmed with a triglyceride assay kit (Cayman, USA).

[5] = Delivery of fluorescently labeled peptide to tissues of obesity model mice (HFD); assay type: in vivo, C57BL/6 mice
Method: (§3) All animal experiments performed for the present invention were approved by the Institutional Animal Care and Use Committee of Hanyang University. […] Thereafter, depending on the experimental group, 60 μg/one time of FBP8 were administered by intravenous injection twice a week for a total of 5 weeks (FIG. 13), or FBP7 was administered by subcutaneous injection twice a day.
100 μg of an Alexa 647-bound peptide was administered by intravenous injection into obesity model mice, and after 12, 24, and 48 hours, the tissues were isolated, and the fluorescence signals in each tissue were analyzed with an image station fluorescence analyzer (Carestream). After the fluorescence signal analysis, the relative fluorescence intensity of each tissue was compared using an ImageJ program provided by NIH.
In addition, 100 μg of Alexa 488-bound FBP was administered by intravenous injection into obesity model mice to confirm whether cell units of peptides were delivered to liver tissues, and frozen tissue sections were produced by isolating the liver tissues after 12, 24, and 48 hours. Thereafter, the nuclei were stained with Hoechst 33342, and the fluorescence signals were analyzed under a TCS-SP5 confocal microscope.
Based on the Fas-specific binding ability of FBP-8 confirmed by the experiments, it was confirmed whether FBP-8 could be specifically delivered to liver tissues or adipose tissues when systemically delivered by intravenous injection or subcutaneous injection. Fluorescently labeled FBP-8 was injected by intravenous injection or subcutaneous injection into obesity model mice in the high fat diet group, and after 24 and 48 hours, the fluorescence distribution was investigated by isolating each organ.

[6] = Delivery of fluorescently labeled peptide to organs of normal body weight mice; assay type: in vivo; conditions: intravenous (IV) or subcutaneous (SC) injection, 12 hours
[7] = tested on: obesity model mice; assay: Crown-like structure (CLS) in white adipose tissues, obesity model mice, intravenous FBP-8; assay type: in vivo, C57BL/6 mice; conditions: compared to negative control (CtrFBP)
Method: as §3
(§4) Liver tissue and white adipose tissue sections were stained with hematoxylin & eosin and then histologically analyzed under an optical microscope.

[8] = tested on: obesity model mice; assay: Pro-inflammatory cytokines in blood, obesity model mice, intravenous FBP-8; assay type: in vivo, C57BL/6 mice
Method: as §3, §2

[9] = tested on: obesity model mice; assay: Daily food intake and body weight change, obesity model mice, intravenous FBP-8; assay type: in vivo, C57BL/6 mice
Method: as §3
Obesity model mice were produced by feeding normal mice a high fat diet for 8 weeks, and FBP-8 was administered by intravenous injection twice a week for a total of 5 weeks (FIG. 13). After five weeks, the obesity model mice were sacrificed to isolate white adipose tissues and liver tissues and analyze the proportion of dead cells by TUNEL staining.

[10] = tested on: obesity model mice; assay: Blood fatty acid, insulin, triglyceride, ALT and liver triglyceride, obesity model mice, intravenous FBP-8; assay type: in vivo, C57BL/6 mice
Method: as §3, §2

[11] = tested on: obesity model mice; assay: Liver morphology, weight and histological analysis, obesity model mice, intravenous FBP-8; assay type: in vivo, C57BL/6 mice
Method: as §3, §4

[12] = intravenous, liver tissue sections
[13] = compared to negative control (CtrFBP)

## YCDEHFCY (Fas binding peptide-8 (FBP-8))
[1]
  binding to Jurkat cells (Alexa647 signal): bound to Jurkat cells at similar levels
[2]
  apoptosis level: 14±2.98%
[3]
  expressions of inflammation-related genes Fas, TNF-α, MCP-1, F4/80, IL-6 and iNOS: remarkably reduced
[4]
  concentrations of IL-6 and MCP-1 in the cell culture solution: reduces
[5]; intravenous, 24 and 48 hours
  tissue delivery after intravenous injection: specifically delivered to the liver tissue and white adipose tissue
[5]; [12]
  time from which peptide was delivered to the liver tissue after intravenous injection: 12 h
  time until which peptide remained in the liver tissue after intravenous injection: 48 h
[5]; subcutaneous
  time remaining in the liver tissue after subcutaneous injection: ≥ 48 h
[5]; subcutaneous, compared to CtrFBP, 24 and 48 hours
  tissue delivery after subcutaneous injection: specifically delivered to the liver tissue
[6]
  fluorescence signal in the liver tissue of normal mice: a significant fluorescence signal could not be observed
[7]
  crown-like structure (CLS) in white adipose tissues: remarkably reduced
[8]
  concentrations of IL-6 and MCP-1 in blood: decrease
[9]
  daily food intake: no significant change
[9]; [13]
  body weight gain: slower
[10]
  reduction of triglyceride (TG) concentration in blood: about 25%
  reduction of triglyceride (TG) concentration in the liver tissue: about 50%
[10]; [13]
  decrease of fatty acid concentration in blood: about 20%
  decrease of insulin concentration in blood: about 20%
  reduction of blood alanine aminotransferase (ALT) level: ≥ 30%
[11]
  damage to the liver tissue (histological analysis): inhibited
[11]; [13]
  size of the liver tissue: smaller
  weight of the liver tissue: lighter
